In patent publication US7253211B2, “(R)-chiral halogenated substituted fused heterocyclic amino compounds useful for inhibiting cholesterol ester transfer protein activity” (Pfizer Inc., priority 1999, dated 2007):

What was measured:
plasma HDL [1] = test: Assay of Plasma HDL Elevation In Vivo: rabbits
Protocol: Alternatively, rabbits were maintained on a normal chow diet. […] Plasma concentrations of drug were detected throughout the duration of the pump infusion in treated animals and averaged 1.2 μg/mL. Periodically, plasma samples were taken and analyzed for triglycerides, total cholesterol, and HDL.

CETP = test: Assay of CETP Inhibition In Vivo: CETP-mediated transfer in hamster; set-up: species or system golden Syrian hamsters; conditions: single oral dose 10 mpk
Protocol: Assay of CETP Inhibition In Vivo.
Male golden Syrian hamsters were maintained on a diet of chow containing 0.24% cholesterol for at least two weeks prior to the study. For animals receiving intravenous dosing immediately before the experiment, animals were anesthetized with pentobarbital. Anesthesia was maintained throughout the experiment. In-dwelling catheters were inserted into the jugular vein and carotid artery. At the start of the experiment all animals received 0.2 mL of a solution containing [^3H]CE-HDL into the jugular vein. […] After centrifugation, the resulting supernatant (25 μL) containing the HDL was analyzed for radioactivity using a liquid scintillation counter.
(§1) The percentage [^3H]CE transferred from HDL to LDL and VLDL (% transfer) was calculated based on the total radioactivity in equivalent plasma samples before precipitation.
Alternatively, conscious, non-anesthetized animals received an oral gavage dose of test compound as a suspension in 0.1% methyl cellulose in water. At a time determined for each compound at which plasma levels of the test substance reached their peak (Cmax) after oral dosing, the animals were anesthetized with pentobarbital and then dosed with 0.2 mL of a solution containing [^3H]CE-HDL into the jugular vein as described above. […]

human CETP (hCETP) = target: T1, human CETP (hCETP) (Homo sapiens, UniProt P11597); test: Assay of CETP Inhibition In Vivo: CETP-mediated transfer in hCETP mice; conditions: single oral dose 60 mpk
T1 construct: expressed in transfected cells; host or cells: transgenic C57Bl/6 mice homozygous for the hCETP gene
T1 sequence (P11597 18-493): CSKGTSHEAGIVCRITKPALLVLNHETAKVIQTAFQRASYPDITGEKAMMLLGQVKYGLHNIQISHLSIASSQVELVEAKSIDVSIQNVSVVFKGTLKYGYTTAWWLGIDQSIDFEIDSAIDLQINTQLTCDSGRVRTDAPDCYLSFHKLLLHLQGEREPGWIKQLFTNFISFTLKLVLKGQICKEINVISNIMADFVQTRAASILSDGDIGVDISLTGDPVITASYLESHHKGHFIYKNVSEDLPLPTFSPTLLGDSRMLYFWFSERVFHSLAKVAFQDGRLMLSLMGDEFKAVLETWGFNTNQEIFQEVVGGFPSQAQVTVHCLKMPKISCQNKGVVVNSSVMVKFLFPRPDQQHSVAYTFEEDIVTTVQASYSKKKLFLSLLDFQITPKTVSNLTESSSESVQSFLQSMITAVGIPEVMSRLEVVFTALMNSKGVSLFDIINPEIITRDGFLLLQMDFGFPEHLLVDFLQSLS
Description: C57B1/6 mice that were homozygous for the hCETP gene were maintained on a high fat chow diet, such as TD 88051, as described by Nishina et al. (J Lipid Res., 31, 859-869 (1990)) for at least two weeks prior to the study. Mice received an oral gavage dose of test compound as a suspension in 0.1% methyl cellulose in water or an intravenous bolus injection of test compound in 10% ethanol and 90% polyethylene glycol. Control animals received the vehicle solution without test compound by oral gavage or by an intravenous bolus injection. At the start of the experiment all animals received 0.05 mL of a solution containing [^3H]CE-HDL into the tail vein. [^3H]CE-HDL is a preparation of human HDL containing tritium-labeled cholesteryl ester, and was prepared according to the method of Glenn et al. (Meth. Enzymol., 263, 339-351 (1996)). After 30 minutes, the animals were exsanguinated and blood collected in standard microtainer tubes containing ethylenediamine tetraacetic acid. Blood samples were mixed well and kept on ice until the completion of the experiment. […] The plasma was separated and analyzed by gel filtration chromatography and the relative proportion of [^3H]CE in the VLDL, LDL and HDL regions was determined.
as §1

plasma HDL [2] = test: Assay of Plasma HDL Elevation In Vivo: lipoprotein profile in hamster; set-up: species or system Syrian Golden hamsters; conditions: oral dose 30 mpk qd, 5 days
Protocol: Assay of Plasma HDL Elevation In Vivo.
Syrian Golden hamsters were made hypercholesterolemic by feeding cholesterol supplemented chow for a minimum of two weeks, as described above. Test compounds were administered orally in selected aqueous or oil based vehicles for up to 1 week. Serum was obtained and analyzed by precipitation or size exclusion chromatography for the relative abundance of VLDL, LDL and HDL.

plasma HDL [3] = test: Assay of Plasma HDL Elevation In Vivo: cynomologous monkeys; conditions: oral gavage 10 mpk q.d. up to 11 days, corn oil based vehicle
Protocol: Alternatively, cynomologous monkeys were maintained on a normal chow diet. […] Plasma levels of drug were detected throughout the experiment in treated animals at ranges of 0.1-1.5 μg/mL. Periodically, plasma samples were taken and analyzed for total cholesterol and HDL.

plasma HDL [4] = test: Assay of Plasma HDL Elevation In Vivo: lipoprotein profile in hCETP mice; set-up: species or system C57b1 mouse expressing human CETP; conditions: oral dose 30 mpk qd, 5 days
Protocol: Alternatively, a strain of C57b1 mouse was made to transgenicaly express human CETP. […] The hCETP mice were made hypercholesterolemic by feeding cholesterol and fat supplemented chow for a minimum of two weeks, as described above. Test compounds were administered orally in selected aqueous or oil based vehicles for up to 1 week. Serum was obtained and analyzed by size exclusion chromatography for the relative abundance of VLDL, LDL and HDL.

[5] = Alzet pump 30 mg/day/animal, after fourteen days

Plasma concentrations of drug (average) (plasma HDL [1]; Alzet pump 30 mg/day/animal up to 14 days, ethanol:propylene glycol vehicle): 1200 ng/mL
inhibition at 60 mg/kg (human CETP (hCETP)): 40%
Plasma levels of drug (plasma HDL [3]): 100 to 1500 ng/mL
SMILES: CCc1cc(Oc2cccc(N(Cc3cccc(OC(F)(F)C(F)F)c3)C[C@@H](O)C(F)(F)F)c2)ccc1Cl [Example 8, (2R)-3-[[3-(4-chloro-3-ethylphenoxy)phenyl][[3-(1,1,2,2-tetrafluoro-ethoxy)phenyl]methyl]amino]-1,1,1-trifluoro-2-propanol]
decrease in HDL compared to pre-dose levels (plasma HDL [1]; [5]): 12%
decrease in total cholesterol compared to pre-dose levels (plasma HDL [1]; [5]): 19%
increase in triglycerides compared to pre-dose levels (plasma HDL [1]; [5]): 17%
% Inhibition of Transfer (CETP): 35%
% Change in Lipoprotein Profile HDL (plasma HDL [2]): 12%
% Change in Lipoprotein Profile LDL (plasma HDL [2]): −12%
% Change in Lipoprotein Profile VLDL (plasma HDL [2]): −22%
% Change in Lipoprotein Profile HDL (plasma HDL [4]): 12%
% Change in Lipoprotein Profile LDL (plasma HDL [4]): 20%
